Results on one compound are retold here after patent publication US20240366587A1, “USES OF A SOMATOSTATIN MODULATOR FOR THE TREATMENT OF DISEASE” (Crinetics Pharmaceuticals, Inc., priority 2021, published 2024).

As a reminder, the bioavailability is the share of a dose that reaches the circulation, judged against a reference dose that is usually intravenous. As usually defined, the half-life is the time needed for the level to fall by half in the phase considered.

The test system of data set [1] is subjects with acromegaly. Put plainly: ACROBAT Edge: patient reported outcomes (Acromegaly Symptom Diary, PGI-I). The data set is classed as in vivo, human. The protocol: Patients recorded daily acromegaly symptoms using a nine-item Acromegaly Symptom Diary (ASD). The ASD is a 9-item patient-reported measure of symptoms associated with acromegaly, including headache, joint pain, sweating, fatigue, leg weakness, swelling, numbness/tingling, sleep difficulties, and short-term memory difficulties. Symptoms experienced in the previous 24 hours are rated on an 11-point scale, from 0 (no symptom) to 10 (worst symptom). Patient Global Impression of Improvement (PGI-I) scale was completed at week 13 (end of treatment).

Data set [2] in a line: Phase 1 multi-cohort single dose study: relative bioavailability and PK of SDD tablets vs HMG capsules. The data set is classed as in vivo, human. The protocol:
The study was conducted in up to 3 cohorts, each with a specific primary objective: • Cohort 1: To characterize performance of 10 mg tablets prepared by spray-dried dispersion (SDD) of Compound A-HCl salt. • Cohort 2: To evaluate the relative bioavailability of 10 mg SDD tablets compared to the Compound A-HCl hot melt granulation (HMG) formulation, 10 mg capsules. To determine the effect of timing of food administration on pharmacokinetics of low dose of the 10 mg SDD tablets. • Cohort 3: To determine the effect of timing of food administration on pharmacokinetics of SDD tablets and dose proportionality in doses higher than 20 mg. To determine the optimal dosing regimen that results in adequate systemic exposure with short post-dose fasting duration. • Cohort 4: To determine the effect of timing of food administration on pharmacokinetics of SDD tablets in doses higher than 20 mg. To determine the optimal dosing regimen of paltusotine that results in high systemic exposure with low post-dose fasting duration • Cohort 5: To determine the effect of the proton-pump inhibitor (PPI), lansoprazole, on the pharmacokinetics of a 60 mg dose of SDD tablets. To determine the effect of a low-fat meal on the pharmacokinetics of a 60 mg dose of SDD tablets.
The SDD tablets were evaluated. Up to twelve (12) healthy male and female subjects were enrolled in each cohort. Cohort 1 consisted of 4 periods: In Period 1, subjects were administered a proton-pump inhibitor (lansoprazole, 15 mg BID for 3 days (from Day −3), taken orally at least 30 min prior to a meal, once in the morning and once in the evening). On the fourth day (Day 1 of study), fasted subjects will take the last dose of lansoprazole (15 mg) 60 min prior to 20 mg Compound A (2×10 mg of the SDD tablets). In Period 2, fasted subjects were administered 20 mg Compound A (2×10 mg of the SDD tablets). In Period 3, fasted subjects were administered 20 mg Compound A (2×10 mg of the SDD tablets) with a high-fat, high-calorie meal. In Period 4, fasted subjects will take up to 80 mg Compound A (up to 8×10 mg of the SDD tablets). […]

For data set [3], the system named is subjects with acromegaly. The data set is described as follows: ACROBAT Advance long-term study: safety and tolerability. The note with it: acromegaly patients; including in combination with cabergoline. The data set is classed as in vivo, human. The protocol: ACROBAT Advance is an ongoing open-label, long-term (5 year) safety and efficacy study of paltusotine in patients rolling-over from the ACROBAT Evolve & Edge studies.
Eligible patients completing ACROBAT Edge and Evolve entered ACROBAT Advance either immediately on completion of a washout period in the parent study or after a gap during which they reverted to their routine standard of care treatment. Paltusotine therapy: initiated at 10 mg/day and titrated up to maximum dose of 40 mg/day based on IGF-1 and tolerability. Patients were administered 10 mg HMG capsules. Combination therapy was allowed for patients not reaching therapeutic targets with 40 mg/day of paltusotine monotherapy.

Data set [4] can be described thus: Clinical studies: bioavailability and half-life of Compound A. The data set is classed as in vivo. Conditions: human, plasma, oral. An excerpt: Compound A is a selective nonpeptide SST2 biased agonist. […] In some embodiments, Compound A is used to treat acromegaly, neuroendocrine tumors, or both. In some embodiments, Compound A is used to treat acromegaly. In some embodiments, Compound A is used to treat neuroendocrine tumors. In some embodiments, Compound A is used to treat pituitary gigantism.

The test system of a further data set is growth hormone (GH). The data set is described as follows: ACROBAT Edge Phase 2 study in acromegaly: GH levels. The data set is classed as in vivo, human. The protocol: An open label exploratory study designed to evaluate the safety, efficacy, and pharmacokinetics of Compound A (also known as paltusotine) in subjects with acromegaly that are treated with somatostatin analogue (SSA) based treatment regimens.
5 mg or 10 mg HMG capsule formulation. Multiple capsules were swallowed with water depending on dose specified for a given period/cohort. Enrolled patients began treatment with oral paltusotine 10 mg/day. The dose was up-titrated in a double-blind manner in 10-mg increments to a maximum 40 mg/day at weeks 4, 7 and 10 according to IGF-1 levels measured at weeks 2, 5, and 8, respectively. Up-titrations were performed if the investigator confirmed that the patient was tolerating the current dose and the unblinded central IGF-1 reader determined that IGF-1 was >0.9×ULN at week 2 and 5 or >1.0×ULN at week 8.

For the compound `N#Cc1cccc(-c2ccc3ncc(-c4cc(F)cc(F)c4)c(N4CCC(N)CC4)c3c2)c1O` [Compound A, 3-(4-(4-amino-piperidin-1-yl)-3-(3,5-difluoro-phenyl)-quinolin-6-yl)-2-hydroxy-benzonitrile], the “change in total ASD score from Baseline to week 13/EoT, median (IQR)” value with subjects with acromegaly [1] (n=18, score range 0-70) is −0.43 (−5.0, 2.4). In addition, in the data set on subjects with acromegaly [1] (week 13/EoT), the “patients "minimally improved" or "no change" on PGI-I” value is 26 (55.3%) patients and the “patients reporting worsening on PGI-I” value was “No patients reported any degree of worsening”. The “patients "very much improved" or "much improved" on PGI-I” value in the data set with subjects with acromegaly [1] (week 13/EoT, compared to before the study, while treated with depot SRLs) is 11 (23.4%) patients. Also, in data set [2] (Cohort 5, 60 mg SDD tablets), the “reduction of exposures (Cmax and AUC) when administered with PPI” value is ~40%; the “reduction of exposures (Cmax and AUC) when administered with low-fat meal” value was ~60%. Moreover, the “reduction of exposures when administered with high-fat meal” value in data set [2] (SDD tablets) is listed as > 80%. Further, the “tolerability and safety profile” value in the data set on subjects with acromegaly [3] was “well tolerated with a safety profile similar to that of SRLs”. For the same compound, the bioavailability in data set [4] (read-out: estimated bioavailability) was ~70%. Also, the half-life in data set [4] (read-out: observed half-life) was in the range of 42 to 50 h. The “change of GH levels from baseline after 13 weeks of treatment” value with growth hormone (GH) (acromegaly patients previously treated with injected SRL depots) is listed as “did not significantly change from baseline levels”. Moreover, the “GH after withdrawal of treatment” value with growth hormone (GH) (acromegaly patients, washout) is “Rise in GH after withdrawal”.
